From patent publication US20100298141A1, “SUBSTITUTED PYRIDINE N-OXIDE HERBICIDES” (E. I. DU PONT DE NEMOURS AND COMPANY, priority 2007, published 2010)

Columns and labels:
[1] = system: barnyardgrass; test: Test A pre-/postemergence greenhouse test; assay type: in vivo, Echinochloa crus-galli; conditions: for Barnyardgrass plant response rating: 0 to 100 scale; for Plant response rating, Barnyardgrass: 0 to 100 scale where 0 is no effect and 100 is complete control
Outline: (§1)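 Untreated controls served as the reference for visual injury ratings taken about ten days after spraying. The non-phytotoxic solvent/surfactant formulation was applied preemergence to seeded loam and sand and postemergence to plants two to ten cm high.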

[2] = system: crabgrass; test: Test A pre-/postemergence greenhouse test; assay type: in vivo, Digitaria sanguinalis; conditions: for Crabgrass, Large plant response rating: 0 to 100 scale; for Plant response rating, Crabgrass, Large: 0 to 100 scale where 0 is no effect and 100 is complete control
Outline: as §1

[3] = system: velvetleaf; test: Test A pre-/postemergence greenhouse test; assay type: in vivo, Abutilon theophrasti; conditions: for Velvetleaf plant response rating: 0 to 100 scale; for Plant response rating, Velvetleaf: 0 to 100 scale where 0 is no effect and 100 is complete control
Outline: as §1

[4] = system: corn; test: Test A pre-/postemergence greenhouse test; assay type: in vivo, Zea mays; conditions: for Corn plant response rating: 0 to 100 scale; for Plant response rating, Corn: 0 to 100 scale where 0 is no effect and 100 is complete control
Outline: as §1

[5] = system: green foxtail; test: Test C pre-/postemergence test; assay type: in vivo, Setaria viridis; conditions: for Plant response rating, Foxtail, Green: 31 g ai/ha, scale 0 to 100 (0 no effect, 100 complete control)
Outline: (§2)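 Test chemicals were formulated with surfactant in a non-phytotoxic solvent and sprayed both on freshly planted seeds (preemergence) and on 1- to 4-leaf plants of 2–18 cm (postemergence). Flooded-paddy pots received compound directly into 3 cm of standing water, maintained for the test.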

[6] = system: Italian ryegrass; test: Test C pre-/postemergence test; assay type: in vivo, Lolium multiflorum
Outline: as §2

[7] = system: bermudagrass; test: Test C pre-/postemergence test; assay type: in vivo, Cynodon dactylon; conditions: for Plant response rating, Bermudagrass: 31 g ai/ha
Outline: as §2

[8] = system: corn; test: Test C pre-/postemergence test; assay type: in vivo, Zea mays; conditions: for Plant response rating, Corn: 31 g ai/ha, scale 0 to 100 (0 no effect, 100 complete control)
Outline: as §2

[9] = system: crabgrass; test: Test C pre-/postemergence test; assay type: in vivo, Digitaria sanguinalis; conditions: for Plant response rating, Crabgrass, Large: 31 g ai/ha, scale 0 to 100 (0 no effect, 100 complete control)
Outline: as §2

[10] = system: Goosegrass; test: Test C pre-/postemergence test; assay type: in vivo, Eleusin indica; conditions: for Plant response rating, Goosegrass: 31 g ai/ha, scale 0 to 100 (0 no effect, 100 complete control)
Outline: as §2

[11] = system: johnsongrass; test: Test C pre-/postemergence test; assay type: in vivo, Sorghum halepense; conditions: for Plant response rating, Johnsongrass: 31 g ai/ha, scale 0 to 100 (0 no effect, 100 complete control)
Outline: as §2

[12] = system: yellow nutsedge; test: Test C pre-/postemergence test; assay type: in vivo, Cyperus esculentus; conditions: for Plant response rating, Nutsedge, Yellow: 31 g ai/ha, scale 0 to 100 (0 no effect, 100 complete control)
Outline: as §2

[13] = system: pigweed; test: Test C pre-/postemergence test; assay type: in vivo, Amaranthus retroflexus; conditions: for Plant response rating, Pigweed: 31 g ai/ha, scale 0 to 100 (0 no effect, 100 complete control)
Outline: as §2

[14] = system: soybean; test: Test C pre-/postemergence test; assay type: in vivo, Glycine max
Outline: as §2

[15] = system: umbrella sedge; test: Test C flooded paddy test; assay type: in vivo, Cyperus difformis; conditions: Flood
Outline: (§3)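 Compound was added to standing water 3 cm above soil, flood maintained, and plants held in a greenhouse before visual scoring against controls at 13 to 15 days.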

[16] = system: duck salad; test: Test C flooded paddy test; assay type: in vivo, Heteranthera limosa; conditions: Flood
Outline: as §3

[17] = system: barnyardgrass; test: Test C flooded paddy test; assay type: in vivo, Echinochloa crus-galli; conditions: Flood
Outline: as §3

[18] = Postemergence, 125 g ai/ha, 0 is no effect, 100 is complete control
[19] = Postemergence, 500 g ai/ha, 0 is no effect, 100 is complete control
[20] = Preemergence, 125 g ai/ha, 0 no effect, 100 complete control
[21] = 62 g ai/ha, Preemergence, scale 0 to 100
[22] = 125 g ai/ha, preemergence, scale 0 (no effect) to 100 (complete control)
[23] = preemergence, 250 g ai/ha, scale 0 (no effect) to 100 (complete control)
[24] = 62 g ai/ha, Preemergence, scale 0 to 100 (0 no effect, 100 complete control)
[25] = Preemergence, scale 0 to 100 (0 no effect, 100 complete control)
[26] = Preemergence, 31 g ai/ha, scale 0 to 100 (0 no effect, 100 complete control)
[27] = 31 g ai/ha, scale 0 to 100 (0 no effect, 100 complete control)
[28] = 62 g ai/ha, scale 0 to 100, 0 no effect, 100 complete control, 13 to 15 days
[29] = 125 g ai/ha, scale 0 to 100, 0 no effect, 100 complete control, 13 to 15 days
[30] = 250 g ai/ha, scale 0 to 100, 0 no effect, 100 complete control, 13 to 15 days
[31] = 62 g ai/ha, scale 0 to 100 (0 no effect, 100 complete control)

Cn1nc(C(F)(F)F)c(C[S+]([O-])c2cc(F)cc[n+]2[O-])c1Cl (racemic) [Compound 42]
60: Velvetleaf plant response rating [3, 19] | Corn plant response rating [8, 22] | Nutsedge, Yellow plant response rating [12, 21]
100: Plant response rating, Barnyardgrass ([1]; Preemergence, 500 g ai/ha) | Plant response rating, Crabgrass, Large ([2]; Preemergence, 500 g ai/ha) | Foxtail, Green plant response rating [5, 21] | Foxtail, Green plant response rating [5, 22] | Foxtail, Green plant response rating [5, 23] | Bermudagrass plant response rating [7, 24] | Bermudagrass plant response rating [7, 22] | Bermudagrass plant response rating [7, 23] | Crabgrass, Large plant response rating [9, 21] | Crabgrass, Large plant response rating [9, 22] | Crabgrass, Large plant response rating [9, 23] | Goosegrass plant response rating [10, 21] | Goosegrass plant response rating [10, 22] | Goosegrass plant response rating [10, 23] | Johnsongrass plant response rating [11, 22] | Johnsongrass plant response rating [11, 23] | Pigweed plant response rating [13, 21] | Pigweed plant response rating [13, 22] | Plant response rating, Pigweed ([13]; Preemergence) | Pigweed plant response rating [13, 23]
70: Barnyardgrass plant response rating [1, 18] | Crabgrass, Large plant response rating [2, 20] | Corn plant response rating [4, 19] | Plant response rating, Bermudagrass [7, 25] | Plant response rating, Ducksalad [16, 27]
98: Plant response rating, Foxtail, Green ([5]; Preemergence) | Johnsongrass plant response rating [11, 21]
80: Barnyardgrass plant response rating [1, 19] | Barnyardgrass plant response rating [1, 20] | Crabgrass, Large plant response rating [2, 18] | Plant response rating, Velvetleaf ([3]; Preemergence, 500 g ai/ha) | Ryegrass, Italian plant response rating [6, 22] | Corn plant response rating [8, 23] | Plant response rating, Sedge, Umbrella [15, 27]
55: Ryegrass, Italian plant response rating [6, 21] | Plant response rating, Johnsongrass ([11]; Preemergence) | Plant response rating, Barnyardgrass [17, 30]
25: Corn plant response rating [8, 21]
85: Ryegrass, Italian plant response rating [6, 23] | Plant response rating, Goosegrass ([10]; Preemergence) | Nutsedge, Yellow plant response rating [12, 22] | Plant response rating, Sedge, Umbrella [15, 28] | Plant response rating, Ducksalad [16, 28] | Plant response rating, Ducksalad [16, 29]
10: Velvetleaf plant response rating [3, 20]
0: Velvetleaf plant response rating [3, 18] | Corn plant response rating [4, 18] | Corn plant response rating [4, 20] | Plant response rating, Corn ([4]; Preemergence, 500 g ai/ha) | Plant response rating, Corn ([8]; Preemergence) | Plant response rating, Nutsedge, Yellow ([12]; Preemergence) | Soybean plant response rating [14, 21] | Plant response rating, Soybean [14, 26] | Plant response rating, Barnyardgrass [17, 27] | Plant response rating, Barnyardgrass [17, 28]
90: Crabgrass, Large plant response rating [2, 19] | Plant response rating, Sedge, Umbrella [15, 29] | Plant response rating, Ducksalad [16, 30]
95: Plant response rating, Crabgrass, Large ([9]; Preemergence) | Nutsedge, Yellow plant response rating [12, 23] | Plant response rating, Sedge, Umbrella [15, 30]
40: Soybean plant response rating [14, 22] | Soybean plant response rating [14, 23] | Plant response rating, Barnyardgrass [17, 29]

CCc1cc[n+]([O-])c(S(=O)(=O)Cc2c(C(F)(F)F)nn(C)c2OCC(F)(F)F)c1 [Compound 60]
45: Plant response rating, Barnyardgrass [17, 30]
70: Velvetleaf plant response rating [3, 19] | Velvetleaf plant response rating [3, 20]
90: Barnyardgrass plant response rating [1, 19] | Barnyardgrass plant response rating [1, 20] | Crabgrass, Large plant response rating [2, 20] | Ryegrass, Italian plant response rating [6, 23]
30: Plant response rating, Corn ([4]; Postemergence, 125 g ai/ha)
98: Corn plant response rating [8, 23]
80: Plant response rating, Barnyardgrass ([1]; Postemergence, 125 g ai/ha) | Crabgrass, Large plant response rating [2, 19] | Ryegrass, Italian plant response rating [6, 22] | Plant response rating, Sedge, Umbrella [15, 30]
55: Corn plant response rating [8, 22]
40: Plant response rating, Ducksalad [16, 30]
85: Plant response rating, Foxtail, Green ([5]; Preemergence) | Soybean plant response rating [14, 23]
50: Plant response rating, Crabgrass, Large ([2]; Postemergence, 125 g ai/ha) | Plant response rating, Corn ([4]; Preemergence, 500 g ai/ha) | Nutsedge, Yellow plant response rating [12, 21] | Soybean plant response rating [14, 21] | Soybean plant response rating [14, 22]
75: Ryegrass, Italian plant response rating [6, 21]
20: Plant response rating, Ryegrass, Italian [6, 26] | Corn plant response rating [8, 21] | Plant response rating, Nutsedge, Yellow ([12]; Preemergence) | Plant response rating, Barnyardgrass [17, 31]
100: Plant response rating, Barnyardgrass ([1]; Preemergence, 500 g ai/ha) | Plant response rating, Crabgrass, Large ([2]; Preemergence, 500 g ai/ha) | Plant response rating, Velvetleaf ([3]; Preemergence, 500 g ai/ha) | Foxtail, Green plant response rating [5, 21] | Foxtail, Green plant response rating [5, 22] | Foxtail, Green plant response rating [5, 23] | Bermudagrass plant response rating [7, 24] | Bermudagrass plant response rating [7, 22] | Plant response rating, Bermudagrass [7, 25] | Bermudagrass plant response rating [7, 23] | Crabgrass, Large plant response rating [9, 21] | Crabgrass, Large plant response rating [9, 22] | Plant response rating, Crabgrass, Large ([9]; Preemergence) | Crabgrass, Large plant response rating [9, 23] | Goosegrass plant response rating [10, 21] | Goosegrass plant response rating [10, 22] | Plant response rating, Goosegrass ([10]; Preemergence) | Goosegrass plant response rating [10, 23] | Johnsongrass plant response rating [11, 21] | Johnsongrass plant response rating [11, 22] | Plant response rating, Johnsongrass ([11]; Preemergence) | Johnsongrass plant response rating [11, 23] | Nutsedge, Yellow plant response rating [12, 22] | Nutsedge, Yellow plant response rating [12, 23] | Pigweed plant response rating [13, 21] | Pigweed plant response rating [13, 22] | Plant response rating, Pigweed ([13]; Preemergence) | Pigweed plant response rating [13, 23]
0: Corn plant response rating [4, 20] | Plant response rating, Corn ([8]; Preemergence) | Plant response rating, Sedge, Umbrella [15, 31] | Plant response rating, Ducksalad [16, 31]
60: Plant response rating, Velvetleaf ([3]; Postemergence, 125 g ai/ha) | Corn plant response rating [4, 19]
